{
  "source": "patent US4414225A",
  "about": "“Azepine derivatives and their anti-thrombotic compositions and methods” (Dr. Karl Thomae Gesellschaft mit beschrankter Haftung, priority 1981, dated 1983)",
  "key": {"[1]": {"test_system": "thrombocytes of healthy human test subjects", "experiment": "Born test: collagen-induced thrombocyte aggregation, with and without PGI2 (in vitro)", "format": "cell-based", "conditions": "n = 4; for mm height of curve (Born test): control 129; for inhibition at 100 µM: Homo sapiens", "description": "(§1) 2. Antithrombotic Activity: (a) The thrombocytes of healthy human test subjects were incubated for 10 minutes at 37° C. with the test substance (final concentration: 1×10^-4 mol/l). Then, aggregation was initiated with collagen in the Born test in the usual way. Shortly before aggregation was initiated, a small quantity of supernatant liquid containing prostacycline, which was obtained from rings of aorta placed in the TRIS buffer, was added to the test sample. The quantity of supernatant liquid containing prostacycline was selected so that on its own it had little or no inhibiting effect. The sample incubated with the substance reacted with PGI2 to give an inhibition of aggregation which was more than additive."}, "thrombocyte aggregation": {"test_system": "thrombocyte aggregation", "experiment": "Prostacycline-reinforcing effect after oral administration in animals (Born Test on blood sample)", "format": "in vivo, rat", "description": "as §1, with “(a)” for “2. Antithrombotic Activity: (a)”\n(c) Prostacycline-reinforcing effect after oral administration in animals:\nRats weighing 450 gm were given the compound orally at a dose of 20 mg/kg; then, after one hour, a blood sample was taken and the Born Test was carried out as described above."}, "[2]": {"test_system": "thrombocytes of healthy human test subjects", "experiment": "Adenosine-potentiating effect in the Born Test (thrombocyte aggregation)", "format": "cell-based", "conditions": "n = 4; for mm height of curve (Born test): control 114"}, "Acute toxicity": {"experiment": "Acute toxicity", "format": "in vivo", "conditions": "maximum doses used (50 mg/kg per os)"}, "normolipemic rat": {"test_system": "normolipemic rat", "experiment": "Cholesterol-reducing effect: test on the normolipemic rat", "format": "in vivo", "conditions": "1.1 mg/kg (A) or 20.0 mg/kg (B), by esophageal tube twice with interval of 20 hours, serum after 28 and 44 hours", "description": "(§2) 1. Cholesterol-reducing effect\n(b) Test on the normolipemic rat:\nMale normolipemic rats with an average body weights of 250 to 300 gm were given the test compound by esophageal tube twice with an interval of 20 hours. At the start of the test, the animals were deprived of food but had free access to drinking water. The serum cholesterol levels were determined enzymatically (Boehringer Mannheim Test Combination 126.039) after 28 and 44 hours. The percentage reduction was calculated in comparison with a control group: […]"}, "hyperlipemic rat": {"test_system": "hyperlipemic rat", "experiment": "Cholesterol-reducing effect: test on the hyperlipemic rat", "format": "in vivo", "conditions": "50 mgm/kg by esophageal tube on two successive days, serum 24 hours after final administration", "description": "as §2\n(a) Test on the hyperlipemic rat: Literatur: P. E. Schurr et al., Atherosclerosis Drug Discovery (1976), published by C. E. Day; Plenum, New York, page 215.\nYoung male rats with an average body weight of 100 gm were made hypercholesterolemic by feeding them for 4 days on a diet consisting of 10% coconut oil, 1.5% cholesterol, 0.5% cholic acid, 0.2% choline chloride and 15% sucrose. While continuing with the diet, the test compound was administered in a methyl cellulose suspension by esophageal tube on two successive days. The animals were then made to fast overnight and 24 hours after the final administration of the test compound a blood sample was taken in order to obtain serum.\nIn the serum, the total cholesterol was determined enzymatically (Boehringer Mannheim Test Combination 126 039) and the β-lipoproteinswere determined by nephelometry, after precipitation with Ca^++ and heparin, in the Autoanalyzer. The percentage reduction was calculated by comparison with a control group: […]"}, "[3]": {"conditions": "PRP + compound C (1×10^-4 mol/l) + PGI2, collagen"}, "[4]": {"conditions": "PRP + compound C alone, 1×10^-4 mol/l, collagen"}, "[5]": {"conditions": "PRP + compound C alone (1 × 10^-4)"}},
  "data": [
    {"compound": "PGI2 [reference compound]", "values": [
      {"measurement": "% inhibition of thrombocyte aggregation", "setting": "[1]; PRP + PGI2 alone, collagen", "result": 30, "unit": "%"},
      {"measurement": "mm height of curve (Born test)", "setting": "[1]; PRP + PGI2 alone, collagen", "result": 90, "unit": "mm"},
      {"measurement": "inhibition of aggregation", "setting": "thrombocyte aggregation; plasma of control animals + PGI2", "result": 20, "unit": "%"}
    ]},
    {"compound": "Cl.Clc1ccccc1CN1CCc2ccsc2CC1", "note": "[C, 6-(2-Chlorobenzyl)-5,6,7,8-tetrahydro-4H-thieno[2,3-d]azepine hydrochloride]", "values": [
      {"measurement": "inhibition at 100 µM", "setting": "[1]; [3]", "result": 69, "unit": "%"},
      {"measurement": "inhibition at 100 µM", "setting": "[1]; [4]", "result": 20.7, "unit": "%"},
      {"measurement": "mm height of curve (Born test)", "setting": "[1]; [3]", "result": 38, "unit": "mm"},
      {"measurement": "mm height of curve (Born test)", "setting": "[1]; [4]", "result": 101, "unit": "mm"},
      {"measurement": "% inhibition of thrombocyte aggregation", "setting": "[2]; PRP + compound C + adenosine", "result": 61, "unit": "%"},
      {"measurement": "mm height of curve (Born test)", "setting": "[2]; PRP + compound C + adenosine", "result": 44, "unit": "mm"},
      {"measurement": "% inhibition of thrombocyte aggregation", "setting": "[2]; [5]", "result": 33, "unit": "%"},
      {"measurement": "mm height of curve (Born test)", "setting": "[2]; [5]", "result": 75, "unit": "mm"},
      {"measurement": "inhibition of aggregation", "setting": "thrombocyte aggregation; rats treated with 20 mg/kg per os of compound C, blood sample after one hour, without PGI2, averages from three sets of tests on four animals", "result": 4, "unit": "%"},
      {"measurement": "inhibition of aggregation", "setting": "thrombocyte aggregation; rats treated with compound C, 20 mg/kg per os, blood sample after one hour, + PGI2", "result": 100, "unit": "%"},
      {"measurement": "toxic side effects", "setting": "Acute toxicity", "result": "no toxic side effects were observed"}
    ]},
    {"compound": "Cl.O=C(O)c1cc2c(s1)CCN(Cc1ccccc1)CC2", "note": "[A, 6-Benzyl-5,6,7,8-tetrahydro-4H-thieno[2,3-d]azepine-2-carboxylic acid hydrochloride]", "values": [
      {"measurement": "Percentage reduction compared with control: Total cholesterol in the serum", "setting": "normolipemic rat", "result": -26, "unit": "%"},
      {"measurement": "toxic side effects", "setting": "Acute toxicity", "result": "no toxic side effects were observed"}
    ]},
    {"compound": "CCCCCCCCCCCCN1CCc2cc(C(=O)[O-])sc2CC1.[Na+]", "values": [
      {"measurement": "Percentage reduction compared with controls: Cholesterol in the serum", "setting": "hyperlipemic rat", "result": -21, "unit": "%"},
      {"measurement": "Percentage reduction compared with controls: β-lipoproteins in the serum", "setting": "hyperlipemic rat", "result": -51, "unit": "%"},
      {"measurement": "Percentage reduction compared with control: Total cholesterol in the serum", "setting": "normolipemic rat", "result": -20, "unit": "%"},
      {"measurement": "toxic side effects", "setting": "Acute toxicity", "result": "no toxic side effects were observed"}
    ]},
    {"compound": "Nc1ncnc2c1ncn2[C@@H]1O[C@H](CO)[C@@H](O)[C@H]1O", "note": "[adenosine, reference compound]", "values": [
      {"measurement": "% inhibition of thrombocyte aggregation", "setting": "[2]; PRP + adenosine alone", "result": 20, "unit": "%"},
      {"measurement": "mm height of curve (Born test)", "setting": "[2]; PRP + adenosine alone", "result": 91, "unit": "mm"}
    ]}
  ]
}
